Experimental data reported in ChEMBL document CHEMBL3400144, “Design and synthesis of novel 1,2-dithiolan-4-yl benzoate derivatives as PTP1B inhibitors” (Bioorg Med Chem Lett, 2015).

What was measured:
[1] = target: T1, Tyrosine-protein phosphatase non-receptor type 1 (Homo sapiens, UniProt P18031); assay: Inhibition of PTP1B (unknown origin)
T1 sequence (P18031 whole entry): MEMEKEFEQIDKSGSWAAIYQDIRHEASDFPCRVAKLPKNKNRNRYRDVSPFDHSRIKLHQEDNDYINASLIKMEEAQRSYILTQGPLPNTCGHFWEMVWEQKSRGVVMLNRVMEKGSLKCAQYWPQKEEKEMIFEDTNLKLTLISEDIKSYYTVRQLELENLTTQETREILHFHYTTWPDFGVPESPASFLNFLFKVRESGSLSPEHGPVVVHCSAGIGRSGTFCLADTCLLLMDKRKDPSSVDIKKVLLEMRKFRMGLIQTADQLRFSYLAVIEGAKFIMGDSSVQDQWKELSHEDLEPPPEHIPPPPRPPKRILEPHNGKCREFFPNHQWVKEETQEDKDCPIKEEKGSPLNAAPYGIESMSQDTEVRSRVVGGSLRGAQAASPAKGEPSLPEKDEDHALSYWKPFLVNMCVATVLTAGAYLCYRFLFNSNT

[2] = target: T2, Tyrosine-protein phosphatase non-receptor type 2 (Homo sapiens, UniProt P17706); assay: Inhibition of TCPTP (unknown origin)
T2 sequence (P17706 whole entry): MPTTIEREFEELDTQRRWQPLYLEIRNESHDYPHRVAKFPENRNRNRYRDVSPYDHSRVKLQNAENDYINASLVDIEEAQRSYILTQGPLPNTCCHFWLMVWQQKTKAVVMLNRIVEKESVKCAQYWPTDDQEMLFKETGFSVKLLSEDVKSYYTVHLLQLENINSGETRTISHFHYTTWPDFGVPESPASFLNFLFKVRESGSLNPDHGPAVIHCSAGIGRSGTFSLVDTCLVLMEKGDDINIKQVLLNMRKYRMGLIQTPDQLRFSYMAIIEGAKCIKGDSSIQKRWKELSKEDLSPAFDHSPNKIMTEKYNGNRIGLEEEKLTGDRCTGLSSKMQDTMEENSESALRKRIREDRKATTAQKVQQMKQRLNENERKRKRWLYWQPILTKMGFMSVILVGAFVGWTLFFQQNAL

[3] = target: Receptor-type tyrosine-protein phosphatase F (Homo sapiens, UniProt P10586); assay: Inhibition of LAR (unknown origin)
[4] = target: Tyrosine-protein phosphatase non-receptor type 6 (Homo sapiens, UniProt P29350); assay: Inhibition of SHP1 (unknown origin)
[5] = target: T3, Tyrosine-protein phosphatase non-receptor type 11 (Homo sapiens, UniProt Q06124); assay: Inhibition of SHP2 (unknown origin)
T3 sequence (Q06124 whole entry): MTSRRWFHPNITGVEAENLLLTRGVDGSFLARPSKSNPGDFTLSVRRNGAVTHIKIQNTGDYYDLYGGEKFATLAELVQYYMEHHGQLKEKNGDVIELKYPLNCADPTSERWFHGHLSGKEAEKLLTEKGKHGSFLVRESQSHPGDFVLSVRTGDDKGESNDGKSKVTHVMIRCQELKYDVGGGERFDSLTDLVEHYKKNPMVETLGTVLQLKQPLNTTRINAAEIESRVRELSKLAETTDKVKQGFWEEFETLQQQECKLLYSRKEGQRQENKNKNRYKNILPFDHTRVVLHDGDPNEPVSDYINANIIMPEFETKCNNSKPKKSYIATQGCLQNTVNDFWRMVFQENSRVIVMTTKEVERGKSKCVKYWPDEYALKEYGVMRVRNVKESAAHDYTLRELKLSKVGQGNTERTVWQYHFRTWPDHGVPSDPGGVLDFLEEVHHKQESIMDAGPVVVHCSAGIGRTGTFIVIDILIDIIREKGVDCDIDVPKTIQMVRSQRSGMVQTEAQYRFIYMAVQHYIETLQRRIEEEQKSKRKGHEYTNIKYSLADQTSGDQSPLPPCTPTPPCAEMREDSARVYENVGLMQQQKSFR

Homo sapiens = organism: Homo sapiens; assay: Selectivity ratio of IC50 for TCPTP (unknown origin) to IC50 for PTP1B (unknown origin)

Tyrosine-protein phosphatase non-receptor type 6, sequence (P29350 whole entry): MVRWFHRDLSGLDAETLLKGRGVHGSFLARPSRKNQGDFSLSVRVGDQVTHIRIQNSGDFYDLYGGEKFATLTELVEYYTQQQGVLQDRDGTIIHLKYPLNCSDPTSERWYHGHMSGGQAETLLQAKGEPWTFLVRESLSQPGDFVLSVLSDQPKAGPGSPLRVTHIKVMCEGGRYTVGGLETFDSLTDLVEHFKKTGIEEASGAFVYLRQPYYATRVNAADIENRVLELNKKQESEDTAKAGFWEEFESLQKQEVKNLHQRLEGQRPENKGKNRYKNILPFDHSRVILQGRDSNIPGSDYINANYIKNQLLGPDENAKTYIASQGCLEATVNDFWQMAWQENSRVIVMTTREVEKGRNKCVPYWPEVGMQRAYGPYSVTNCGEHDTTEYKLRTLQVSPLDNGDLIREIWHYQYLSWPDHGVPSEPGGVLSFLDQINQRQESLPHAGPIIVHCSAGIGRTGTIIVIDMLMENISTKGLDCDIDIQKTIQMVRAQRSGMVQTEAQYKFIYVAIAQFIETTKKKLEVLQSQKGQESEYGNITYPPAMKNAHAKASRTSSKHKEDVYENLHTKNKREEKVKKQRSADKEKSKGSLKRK
Receptor-type tyrosine-protein phosphatase F, sequence (P10586 whole entry): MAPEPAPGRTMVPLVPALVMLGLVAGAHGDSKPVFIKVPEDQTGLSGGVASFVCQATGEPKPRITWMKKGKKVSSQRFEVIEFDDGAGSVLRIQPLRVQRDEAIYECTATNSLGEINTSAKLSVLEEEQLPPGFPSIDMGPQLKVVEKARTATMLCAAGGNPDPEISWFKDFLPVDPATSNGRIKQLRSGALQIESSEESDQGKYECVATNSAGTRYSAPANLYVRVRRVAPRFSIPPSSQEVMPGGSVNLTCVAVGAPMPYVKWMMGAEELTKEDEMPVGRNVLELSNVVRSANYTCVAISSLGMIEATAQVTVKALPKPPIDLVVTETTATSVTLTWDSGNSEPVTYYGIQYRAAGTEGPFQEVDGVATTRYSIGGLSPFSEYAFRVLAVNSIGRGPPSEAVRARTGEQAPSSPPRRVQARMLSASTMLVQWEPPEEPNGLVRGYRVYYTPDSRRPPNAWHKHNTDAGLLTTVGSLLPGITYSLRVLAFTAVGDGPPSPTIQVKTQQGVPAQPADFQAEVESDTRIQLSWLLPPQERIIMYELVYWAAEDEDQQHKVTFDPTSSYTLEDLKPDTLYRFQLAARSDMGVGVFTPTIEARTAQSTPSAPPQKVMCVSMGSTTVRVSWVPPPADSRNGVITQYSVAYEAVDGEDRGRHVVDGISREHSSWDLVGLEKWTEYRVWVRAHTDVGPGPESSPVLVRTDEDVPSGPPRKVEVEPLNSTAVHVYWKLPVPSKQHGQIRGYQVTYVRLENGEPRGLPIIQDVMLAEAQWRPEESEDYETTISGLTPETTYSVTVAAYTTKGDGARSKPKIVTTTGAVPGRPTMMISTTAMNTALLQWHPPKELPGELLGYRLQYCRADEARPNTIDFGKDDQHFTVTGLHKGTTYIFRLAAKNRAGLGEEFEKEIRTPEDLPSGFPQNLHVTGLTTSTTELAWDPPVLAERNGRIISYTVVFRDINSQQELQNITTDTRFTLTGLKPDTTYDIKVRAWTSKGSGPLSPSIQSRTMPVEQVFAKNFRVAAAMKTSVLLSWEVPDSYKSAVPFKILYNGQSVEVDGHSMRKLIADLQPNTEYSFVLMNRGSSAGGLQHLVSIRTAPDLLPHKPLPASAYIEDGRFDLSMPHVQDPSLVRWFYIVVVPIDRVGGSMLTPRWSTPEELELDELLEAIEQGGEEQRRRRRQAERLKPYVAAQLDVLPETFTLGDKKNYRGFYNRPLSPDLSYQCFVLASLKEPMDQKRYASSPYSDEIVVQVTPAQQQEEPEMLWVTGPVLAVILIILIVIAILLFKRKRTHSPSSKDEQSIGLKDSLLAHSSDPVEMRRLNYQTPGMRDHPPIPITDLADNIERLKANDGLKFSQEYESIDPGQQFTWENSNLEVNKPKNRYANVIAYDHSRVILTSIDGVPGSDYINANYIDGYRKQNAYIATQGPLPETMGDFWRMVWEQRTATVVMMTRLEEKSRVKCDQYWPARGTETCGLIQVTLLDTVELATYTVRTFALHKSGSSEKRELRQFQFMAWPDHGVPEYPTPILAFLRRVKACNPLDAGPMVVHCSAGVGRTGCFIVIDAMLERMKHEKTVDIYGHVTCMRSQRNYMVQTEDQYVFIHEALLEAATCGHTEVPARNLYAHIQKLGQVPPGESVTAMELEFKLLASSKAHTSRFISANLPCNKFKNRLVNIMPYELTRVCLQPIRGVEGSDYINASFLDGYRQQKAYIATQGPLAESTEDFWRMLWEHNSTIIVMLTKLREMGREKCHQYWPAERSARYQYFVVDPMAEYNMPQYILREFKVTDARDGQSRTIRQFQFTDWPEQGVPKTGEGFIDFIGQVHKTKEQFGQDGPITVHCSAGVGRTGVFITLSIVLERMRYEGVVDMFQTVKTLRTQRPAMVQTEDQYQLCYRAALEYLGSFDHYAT

SMILES | IC50 ([1]; read-out: IC50) | IC50 [2] | IC50 [3] | IC50 [4] | IC50 ([5]; read-out: IC50) | Ratio IC50 (Homo sapiens) | IC50 [1] | IC50 ([4]; read-out: IC50) | IC50 [5]
O=C(OC1CSSC1)c1ccc(C#CCCCCOC(=O)c2cc(Br)ccc2Br)cc1 | 0.59 µM | 1.88 µM | Not Active | Not Active | 13.2 µM | 3 | – | – | –
O=C(OC1CSSC1)c1ccc(OCCCOC(=O)c2cc(Br)ccc2Br)cc1 | – | 27.6 µM | Not Active | – | 10.9 µM | – | Not Active | 32.2 µM | –
O=C(OC1CSSC1)c1ccc(CCCCCCOC(=O)c2cc(Br)ccc2Br)cc1 | 2.68 µM | 17.4 µM | Not Active | – | 9.69 µM | > 6 | – | 11.1 µM | –
O=C(OCCCCC#Cc1ccc(C(=O)OC2CSSC2)cc1)c1ccc(F)cc1 | 4.68 µM | 4.36 µM | Not Active | – | 9.41 µM | – | – | 9.21 µM | –
O=C(OCCCCC#Cc1ccc(C(=O)OC2CSSC2)cc1)c1cccc([N+](=O)[O-])c1 | 9.7 µM | 12.9 µM | Not Active | – | 22.3 µM | – | – | 23.6 µM | –
O=C(OC1CSSC1)c1ccc(C#CCCOC(=O)c2cc(Br)ccc2Br)cc1 | 2.73 µM | 26.7 µM | Not Active | – | 8.25 µM | 10 | – | 15.7 µM | –
O=C(OC1CSSC1)c1ccc(C#CCCCCOC(=O)c2ccccc2[N+](=O)[O-])cc1 | 9.12 µM | 7.83 µM | Not Active | – | 11.5 µM | – | – | 9.25 µM | –
O=C(OCCCCC#Cc1ccc(C(=O)OC2CSSC2)cc1)c1cccc(F)c1 | 5.18 µM | 9.21 µM | Not Active | – | 8.91 µM | – | – | 10 µM | –
COc1ccc(C(=O)OCCCCC#Cc2ccc(C(=O)OC3CSSC3)cc2)cc1 | 6.55 µM | 4.58 µM | Not Active | – | 6.64 µM | – | – | 5.13 µM | –
COc1ccccc1C(=O)OCCCCC#Cc1ccc(C(=O)OC2CSSC2)cc1 | 23.5 µM | 23.2 µM | Not Active | – | 18.3 µM | – | – | 19.3 µM | –
COc1ccc(C(=O)OCCCCC#Cc2ccc(C(=O)OC3CSSC3)cc2)c(OC)c1 | 4.27 µM | 20 µM | Not Active | Not Active | – | 5 | – | – | Not Active
O=C(OC1CSSC1)c1ccc(C#CCCCCOC(=O)c2ccccc2F)cc1 | 4.43 µM | 6.48 µM | Not Active | – | 10.5 µM | – | – | 8.67 µM | –
COc1cccc(C(=O)OCCCCC#Cc2ccc(C(=O)OC3CSSC3)cc2)c1 | 26.3 µM | 26.3 µM | Not Active | – | 34.6 µM | – | – | 38.4 µM | –
O=C(OCCCCC#Cc1ccc(C(=O)OC2CSSC2)cc1)c1ccc([N+](=O)[O-])cc1 | 10.1 µM | 9.46 µM | Not Active | – | 24.6 µM | – | – | 24.9 µM | –
O=C(OC1CSSC1)c1ccc(OCCOC(=O)c2cc(Br)ccc2Br)cc1 | 7.26 µM | 35 µM | Not Active | Not Active | – | – | – | – | Not Active
O=C(OC1CSSC1)c1ccc(OCCCCCCOC(=O)c2cc(Br)ccc2Br)cc1 | 8.85 µM | 30.8 µM | Not Active | Not Active | – | – | – | – | Not Active
